Results on 4 compounds are retold here after US20110077263A1, “Methods and Compositions of Toll-Like Receptor (TLR) Agonists” (priority 2009, published 2011).

Each structure is given as a SMILES string.

In one data set the test system is TLR7 and/or TLR8. To be noted: cited from earlier work.
The conditions of data set [1]: cited from earlier work.
In data set [2] the test system is LC and LC exposed to HPV16 VLP. The format is cell-based, human. Conditions: LC, and LC exposed to HPV16 VLP and then stimulated; for IP-10, MCP-1 and RANTES (CCL5) secretion: data not shown; for IL-12p70, TNF-α, IL-6, IL-8 and MIP-1β concentrations in supernatant: versus negative controls. Here is the method:
(§1) DC and LC were harvested and washed twice with PBS. […] The cells were incubated for 1 h at 37° C., mixed occasionally, and finally placed at 37° C. for 24 h in complete medium containing 1000 U/ml rGM-CSF. LC were left untreated or exposed to HPV16 VLP at a concentration of 10 μg/10^6 cells. The cells were incubated for 1 h at 37° C., mixed occasionally, and placed at 37° C. for 24 h in complete medium containing 1000 U/ml rGM-CSF. […] DC and LC were harvested, washed, and analyzed by flow cytometry for the expression and surface markers. Additionally, untreated LC and LC exposed to HPV16 VLP were also analyzed for the expression of TLR7 and TLR8.
Supernatants were collected from LC stimulated in the imidazoquinolines activation assay and submitted to the Beckman Center for Immune Monitoring Core at the University of Southern California for cytokine and chemokine analysis. The assays were completed using Human Cytokine LINCOplex Kits (LINCO Research) and the Bio-Plex Suspension Array System (Bio-Rad).
Imidazoquinolines stimulate both an innate and an adaptive immune response. The innate immune response induced by imidazoquinolines drives the adaptive immune response into a Th1 cell-mediated response via the local cytokine and chemokine milieu generated primarily by activated macrophages and DC. Thus, Applicants wanted to determine whether selected imidazoquinolines could stimulate LC exposed to HPV16 VLP to produce a proinflammatory cytokine and chemokine profile similar to the cytokine milieu known to be generated by imidazoquinoline-activated DC. Cytokines and chemokines produced by untreated LC, LC exposed to HPV16 VLP, LC treated with each of the imidazoquinoline compounds, and LC exposed to HPV16 VLP and treated with the imidazoquinoline compounds were evaluated. Supernatant from each treatment was collected and analyzed using a human cytokine LINCOplex assay.

Data set [3] concerns LC. Conditions: mouse model; Suzuki et al. 2000; cited from earlier work.
For data set [4], the system named is LC and LC exposed to HPV16 VLP. The format is cell-based, human. Conditions: 5 μM 3M-002, 30 μM imiquimod, 30 μM resiquimod, 5 μM 3M-031, 24 h; for expression of surface markers (MHC class I, MHC class II, CD80, CD86) on LC exposed to HPV16 VLP: then treated; for expression of surface markers (MHC class I, MHC class II, CD80, CD86) on LC: LC not exposed to VLP. Here is the method: For DC, plastic adherent cells were selected by plating 2×10^8 cells in a 175-cm^2 tissue culture flask for 2 h at 37° C. Nonadherent cells were washed away and the remaining cells were cultured for 7 days in complete medium containing 1000 U/ml rGM-CSF (Berlex) and 1000 U/ml rIL-4 (BioSource International), of which 100% was replenished on day 3 and 50% was replenished on day 6. For LC, adherent cells were cultured for 7 days in complete medium containing 1000 U/ml rGM-CSF, 1000 U/ml rIL-4, and 10 ng/ml rTGF-β1 (BioSource International), of which 100% was replenished on day 3, 50% of rGM-CSF and rIL-4 was replenished on day 6, and 100% of rTGF-β1 was replenished on days 3 and 6.
as §1
Each population of cells was harvested after the final incubation and analyzed by flow cytometry for the expression of surface markers.

For data set [5], the system named is LC exposed to HPV16 cVLP with autologous CD8+ T cells. The format is cell-based, human. Conditions: then stimulated, versus untreated LC and LC exposed to cVLP.
Protocol: Briefly, LC were left untreated or exposed to 10 μg of HPV16 cVLP for 1 h at 37° C. in PBS. Subsequently, the cells were incubated for 4 h in complete medium supplemented with 1000 U/ml rGM-CSF at 37° C. Then cells were treated with or without each of the imidazoquinolines and incubated for 20 h at 37° C. […] LC were irradiated (25 Gy) and mixed with autologous CD8^+ T cells isolated from PBL by positive selection using a MACS MulitSort CD8^+ isolation kit (Miltenyi Biotec). Day 7 and 14 re-stimulations were done with LC treated as indicated above. For this, the medium was supplemented with IL-2 at 50 U/ml at 48 and 96 h after re-stimulation. After 28 days, cells were pooled and tested for IFN-γ production by ELISPOT as a measurement of HPV16-E7-specific CD8^+ T cell responses. Briefly, 96-well multiscreen hemagglutinin plates (Millipore) were coated with 10 μg/ml anti-human IFN-γ in PBS overnight, washed with PBS/0.5% Tween 20, and blocked for 4 h with complete medium at 37° C./5% CO2. Then, 2.5×10^5 cells/well were incubated in the presence or absence of HPV16-E7 peptide aa 86-93 for 18 h at 37° C. […] Individual spots were counted after staining with 3-amino-9-ethyl-carbazole substrate (Sigma-Aldrich). Spots were counted using the video-imaging KS ELISPOT analysis system (Zeiss).
Data set [6] concerns cervical intraepithelial neoplasia (CIN). Conditions: cited from earlier work.
Data set [7] relates to LC exposed to HPV16 L1L2 VLP. The format is cell-based, human. To be noted: co-stimulatory and activation molecules, Th1-promoting cytokines, HPV-specific T cells.
Protocol: LC were left untreated or exposed to HPV16 L1L2 VLP for 18 h at 37° C. […] Cell supernatants were analyzed for IL-12 p40/p70 using a Bio-plex suspension bead ELISA (BioRad, Hercules, Calif.).
Data set [8] concerns LC. Conditions: previous studies; cited from earlier work.
Another data set has as its system DC. Nature of the data set: Imidazoquinoline activation assay on DC, surface markers by flow cytometry. The format is cell-based, human.
In data set [9] the test system is LC exposed to HPV16 VLP. Nature of the data set: Transwell migration assay toward CCL21. Conditions: then treated, 250 ng/ml CCL21, 3 h. The format is cell-based, human.
Protocol: LC, HPV16 VLP-exposed LC, or HPV16 VLP-exposed LC treated with each of the imidazoquinolines, using the same concentrations as stated in the imidazoquinoline activation assay, to the upper chambers. The plates were incubated for 3 h at 37° C. Cells that migrated to the lower chamber were counted, and migration was calculated as the ratio of cells that migrated with/without CCL21.
For data set [10], the system named is high-risk HPV-induced vulvar intraepithelium neoplasia (VIN). To be noted: van Seters et al. 2008; cited from earlier work.
The test system of data set [11] is LC exposed to HPV16 VLP. Kind of data set: CCR7 expression on LC by flow cytometry. The format is cell-based, human. Conditions: then treated. Background: Flow cytometry measures light scatter and fluorescence of single cells or particles in a stream.
The subject of data set [12] is LC. To be noted: allogenic MLR; Burns et al. 2000; cited from earlier work.
In data set [13] the test system is LC. Conditions: Burns et al. 2000; Suzuki et al. 2000; cited from earlier work.

For `CCCc1nc2c(N)nc3ccccc3c2s1` [3M-002], the “Agonist receptor(s)” value with TLR7 and/or TLR8 is reported as “TLR8”.

Consider `CCOCc1nc2c(N)nc3ccccc3c2[nH]1` [CL097], for which, in [1], the water solubility was no less than 20 mg/mL.

As to `CC(C)Cn1cnc2c(N)nc3ccccc3c21` [imiquimod], in data set [2], the “IP-10, MCP-1 and RANTES (CCL5) secretion” value is “comparable amounts”; the “IL-12p70, TNF-α, IL-6, IL-8 and MIP-1β concentrations in supernatant” value was “comparable amounts”. In addition, the “migration of LC” value with LC [3] was “induces the migration of LC”. Moreover, in [4], the “expression of surface markers (MHC class I, MHC class II, CD80, CD86) on LC exposed to HPV16 VLP” value was “moderately increased the expression of surface markers” and the “expression of surface markers (MHC class I, MHC class II, CD80, CD86) on LC” value is listed as “only a minor up-regulation of surface markers”. The “HPV16 E7 86-93 epitope-specific CD8+ T cell response (IFN-γ ELISPOT)” value in data set [5] is “did not induce a significant HPV16 epitope-specific immune response”. For the same compound, the “regression of cervical intraepithelial neoplasia (CIN)” value in [6] (clinical trials) is “has not led to regression”. Moreover, in [6] (in vivo), the “toxicity to the cervix” value is “toxic to the cervix”. In addition, in the data set on TLR7 and/or TLR8, the “Agonist receptor(s)” value is given as “TLR7”. Also, the “activation of HPV-exposed LC” value in data set [7] is listed as “did not activate HPV-exposed LC”. In addition, in the data set on LC [8], the “transcription of cytokine genes (TNF-α, IL-6, IL-12p40 mRNA)” value is “enhanced the transcription of the genes”. Besides, the “expression of surface markers (MHC class I, MHC class II, CD80, CD86) on DC” value with DC is “induced the up-regulation of surface markers”. The “migration toward CCL21” value in the data set on LC exposed to HPV16 VLP [9] is “did not enhance CCL21-directed migration”. The “treatment of high-risk HPV-induced VIN” value in data set [10] is “successful in treating”. Further, the “expression of CCR7” value with LC exposed to HPV16 VLP [11] is given as “did not induce the expression of CCR7”.

Consider `CCOCc1nc2c(N)nc3ccccc3c2n1CC(C)(C)O` [resiquimod], for which, in data set [2], the “IP-10, MCP-1 and RANTES (CCL5) secretion” value is listed as “highly secreted”; the “IL-12p70, TNF-α, IL-6, IL-8 and MIP-1β concentrations in supernatant” value was “statistically significantly elevated”. Further, the “allostimulatory capacity of treated LC (T cell proliferation)” value in the data set with LC [12] is recorded as “highly increased the allostimulatory capacity of LC”. Besides, in [4], the “expression of surface markers (MHC class I, MHC class II, CD80, CD86) on LC exposed to HPV16 VLP” value was “significantly induced the up-regulation of the surface markers” and the “expression of surface markers (MHC class I, MHC class II, CD80, CD86) on LC” value is reported as “significantly induced the up-regulation of surface marker”. Besides, the “HPV16 E7 86-93 epitope-specific CD8+ T cell response (IFN-γ ELISPOT)” value in [5] is “initiated a statistically significant HPV16 epitope-specific response”. Moreover, in the data set on TLR7 and/or TLR8, the “Agonist receptor(s)” value is on record as “TLR8/7”. The “activation of HPV-exposed LC” value in data set [7] is “fully activated HPV treated LC”. Also, the “transcription of cytokine genes (TNF-α, IL-6, IL-12p40 mRNA)” value in the data set on LC [8] is given as “enhanced the transcription of the genes”. For the same compound, the “expression of surface markers (MHC class I, MHC class II, CD80, CD86) on DC” value in the data set with DC is listed as “induced the up-regulation of surface markers”. Further, in the data set with LC [13], the “phenotypic and functional activation of LC” value is listed as “do not phenotypically but functionally activate LC”. In addition, the “migration toward CCL21” value in the data set with LC exposed to HPV16 VLP [9] was “significantly induced the migration”. For the same compound, the “expression of CCR7” value with LC exposed to HPV16 VLP [11] is recorded as “induced the up-regulation of CCR7”.
